The text below walks through data of ChEMBL document CHEMBL1154294, “An approach to the site-selective diversification of apoptolidin A with peptide-based catalysts” (J Nat Prod, 2009).

A short description of series [1]: Antiproliferative activity against rat 3Y1 cells after 3 days by tetrazolium based cell counting assay.
A short description of series [2]: Antiproliferative activity against Adenovirus type 12 E1A transformed rat 3Y1cells after 3 days by tetrazolium based cell counting assay. The following applies: 72 h.
Series [3] concerns the target ATP synthase subunit beta, mitochondrial (Saccharomyces cerevisiae S288c, UniProt P00830). Kind of series: Inhibition of yeast mitochondrial F0F1-ATPase.
The test system of another series is NCI-H292. In words: Cytotoxicity activity in human NCI-H292 cells after 48 hrs by thiazolyl blue tetrazolium bromide assay. It counts as functional, cell-based. The following applies: NCI-H292, 48 h.

The structures appear in SMILES notation. Where only a bound is given, the exact number is not on record here.

Chain of ATP synthase subunit beta, mitochondrial (P00830 whole entry): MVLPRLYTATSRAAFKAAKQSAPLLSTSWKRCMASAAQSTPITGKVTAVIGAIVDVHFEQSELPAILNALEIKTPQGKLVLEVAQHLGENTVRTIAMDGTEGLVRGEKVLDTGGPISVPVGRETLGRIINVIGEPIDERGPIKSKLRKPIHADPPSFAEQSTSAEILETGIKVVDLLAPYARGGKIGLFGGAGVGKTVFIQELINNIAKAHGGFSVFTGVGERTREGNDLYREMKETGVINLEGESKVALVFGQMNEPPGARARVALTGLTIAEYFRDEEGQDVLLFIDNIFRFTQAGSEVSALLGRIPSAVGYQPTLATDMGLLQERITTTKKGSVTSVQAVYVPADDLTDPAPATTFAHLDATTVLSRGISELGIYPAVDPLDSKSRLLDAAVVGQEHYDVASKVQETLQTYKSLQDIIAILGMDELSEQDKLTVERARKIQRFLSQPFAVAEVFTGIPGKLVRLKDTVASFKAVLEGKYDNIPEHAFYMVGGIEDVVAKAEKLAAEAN

For the compound `COC[C@@H](CC1O[C@@](O)([C@H](O)C2CC(=O)/C(C)=C/C(C)=C/C(C)=C/[C@@H](C)[C@H](O[C@@H]3O[C@@H](C)[C@H](OC)[C@@H](O)[C@@H]3OC(=O)c3ccccc3)/C=C/C(C)=C/CC[C@H](O)[C@@H](OC)C2)[C@H](C)[C@@H](O)[C@H]1C)O[C@H]1C[C@](C)(O)[C@@H](O[C@H]2C[C@@H](OC)[C@H](O)[C@@H](C)O2)[C@H](C)O1` (some centres not stated), the GI50 at 72 h in series [1] is more than 1000 nM. Moreover, in series [2], the GI50 was 3.6 nM. In addition, in series [3], the IC50 was 300 nM.

In series [1], `COC[C@@H](CC1O[C@@](O)([C@H](O)C2CC(=O)/C(C)=C/C(C)=C/C(C)=C/[C@@H](C)[C@H](O[C@@H]3O[C@@H](C)[C@H](OC)[C@@H](O)[C@@H]3O)/C=C/C(C)=C/CC[C@H](O)[C@@H](OC)C2)[C@H](C)[C@@H](OC(C)=O)[C@H]1C)O[C@H]1C[C@](C)(O)[C@@H](O[C@H]2C[C@@H](OC)[C@H](OC(C)=O)[C@@H](C)O2)[C@H](C)O1` (some centres not stated) came in with a GI50 at 72 h of more than 600 nM. Also, the 50% growth inhibitory concentration (GI50) in series [2] was 9.5 nM. In series [3], this compound returned an IC50 of 400 nM.

`COC[C@@H](CC1O[C@@](O)([C@H](O)C2CC(=O)/C(C)=C/C(C)=C/C(C)=C/[C@@H](C)[C@H](O[C@@H]3O[C@@H](C)[C@H](OC)[C@@H](O)[C@@H]3O)/C=C/C(C)=C/CC[C@H](O)[C@@H](OC)C2)[C@H](C)[C@@H](O)[C@H]1C)O[C@H]1C[C@](C)(O)[C@@H](O[C@H]2C[C@@H](OC)[C@H](OC(C)=O)[C@@H](C)O2)[C@H](C)O1` (some centres not stated): the 50% growth inhibitory concentration (GI50) at 72 h in series [1] was more than 1000 nM. In series [2], this compound displayed a GI50 of 9.8 nM. The IC50 in series [3] came to 800 nM.

The compound `COC[C@@H](CC1O[C@@](O)([C@H](O)C2CC(=O)/C(C)=C/C(C)=C/C(C)=C/[C@@H](C)[C@H](O[C@@H]3O[C@@H](C)[C@H](OC)[C@@H](O)[C@@H]3OC(C)=O)/C=C/C(C)=C/CC[C@H](O)[C@@H](OC)C2)[C@H](C)[C@@H](O)[C@H]1C)O[C@H]1C[C@](C)(O)[C@@H](O[C@H]2C[C@@H](OC)[C@H](O)[C@@H](C)O2)[C@H](C)O1` (some centres not stated) gave an EC50 in the series on NCI-H292 of 60 nM.

In the series on NCI-H292, `COC[C@@H](CC1O[C@@](O)([C@H](OC(C)=O)C2CC(=O)/C(C)=C/C(C)=C/C(C)=C/[C@@H](C)[C@H](O[C@@H]3O[C@@H](C)[C@H](OC)[C@@H](O)[C@@H]3OC(C)=O)/C=C/C(C)=C/CC[C@H](O)[C@@H](OC)C2)[C@H](C)[C@@H](O)[C@H]1C)O[C@H]1C[C@](C)(O)[C@@H](O[C@H]2C[C@@H](OC)[C@H](OC(C)=O)[C@@H](C)O2)[C@H](C)O1` (some centres not stated) yielded a concentration for a half-maximal effect (EC50) of 48 nM.

`COC[C@@H](CC1O[C@@](O)([C@H](O)C2CC(=O)/C(C)=C/C(C)=C/C(C)=C/[C@@H](C)[C@H](O[C@@H]3O[C@@H](C)[C@H](OC)[C@@H](OC(C)=O)[C@@H]3O)/C=C/C(C)=C/CC[C@H](O)[C@@H](OC)C2)[C@H](C)[C@@H](O)[C@H]1C)O[C@H]1C[C@](C)(O)[C@@H](O[C@H]2C[C@@H](OC)[C@H](O)[C@@H](C)O2)[C@H](C)O1` (some centres not stated): in series [1], the GI50 at 72 h is more than 1000 nM. This compound gave a GI50 in series [2] of 2.7 nM. The IC50 in series [3] turned out to be 400 nM.

Consider `COC[C@@H](CC1O[C@@](O)([C@H](OC(C)=O)C2CC(=O)/C(C)=C/C(C)=C/C(C)=C/[C@@H](C)[C@H](O[C@@H]3O[C@@H](C)[C@H](OC)[C@@H](OC(C)=O)[C@@H]3OC(C)=O)/C=C/C(C)=C/CC[C@H](O)[C@@H](OC)C2)[C@H](C)[C@@H](O)[C@H]1C)O[C@H]1C[C@](C)(O)[C@@H](O[C@H]2C[C@@H](OC)[C@H](O)[C@@H](C)O2)[C@H](C)O1` (some centres not stated), for which the midpoint of the response with NCI-H292, the EC50, lay at 48 nM.

For the compound `COC[C@@H](CC1O[C@@](O)([C@H](OC(C)=O)C2CC(=O)/C(C)=C/C(C)=C/C(C)=C/[C@@H](C)[C@H](O[C@@H]3O[C@@H](C)[C@H](OC)[C@@H](O)[C@@H]3O)/C=C/C(C)=C/CC[C@H](O)[C@@H](OC)C2)[C@H](C)[C@@H](O)[C@H]1C)O[C@H]1C[C@](C)(O)[C@@H](O[C@H]2C[C@@H](OC)[C@H](O)[C@@H](C)O2)[C@H](C)O1` (some centres not stated), the 50% growth inhibitory concentration (GI50) at 72 h in series [1] is more than 1000 nM. The compound further displayed a GI50 in series [2] of 11 nM. The compound further showed an IC50 in series [3] of 1100 nM.

In series [1], `COC[C@@H](CC1O[C@@](O)([C@H](OC)C2CC(=O)/C(C)=C/C(C)=C/C(C)=C/[C@@H](C)[C@H](O[C@@H]3O[C@@H](C)[C@H](OC)[C@@H](O)[C@@H]3O)/C=C/C(C)=C/CC[C@H](O)[C@@H](OC)C2)[C@H](C)[C@@H](O)[C@H]1C)O[C@H]1C[C@](C)(O)[C@@H](O[C@H]2C[C@@H](OC)[C@H](O)[C@@H](C)O2)[C@H](C)O1` (some centres not stated) registered a GI50 at 72 h of more than 1000 nM. Further, in series [2], halving of growth (GI50) required 12 nM. In addition, in series [3], the half-inhibitory concentration (IC50) worked out at 2800 nM.

`COC[C@@H](CC1O[C@@](O)([C@H](O)C2CC(=O)/C(C)=C/C(C)=C/C(C)=C/[C@@H](C)[C@H](O[C@@H]3O[C@@H](C)[C@H](OC)[C@@H](O)[C@@H]3O)/C=C/C(C)=C/CC[C@H](OC(C)=O)[C@@H](OC)C2)[C@H](C)[C@@H](O)[C@H]1C)O[C@H]1C[C@](C)(O)[C@@H](O[C@H]2C[C@@H](OC)[C@H](O)[C@@H](C)O2)[C@H](C)O1` (some centres not stated): the concentration for 50% growth inhibition (GI50) at 72 h in series [1] is more than 1000 nM. The compound further showed a GI50 in series [2] of 56 nM. In series [3], this compound gave an IC50 of 800 nM.

The compound `COC[C@@H](CC1O[C@@](O)([C@@H]2OC(=O)/C(C)=C/C(C)=C/C(C)=C/[C@@H](C)[C@H](O[C@@H]3O[C@@H](C)[C@H](OC)[C@@H](O)[C@@H]3O)/C=C/C(C)=C/CC[C@H](O)[C@@H](OC)C[C@@H]2O)[C@H](C)[C@@H](O)[C@H]1C)O[C@H]1C[C@](C)(O)[C@@H](O[C@H]2C[C@@H](OC)[C@H](O)[C@@H](C)O2)[C@H](C)O1` (some centres not stated) [ISOAPOPTOLIDIN] registered a concentration for 50% growth inhibition (GI50) at 72 h in series [1] of more than 1000 nM. In series [2], this compound returned a GI50 of 9 nM. For the same compound, in series [3], the IC50 came to 17000 nM.
